Experimental data from ChEMBL document CHEMBL1154259, “Cell recognition enhanced enzyme hydrolysis of a model peptide-drug conjugate” (Bioorg Med Chem Lett, 2009).
Activity calls are given as the source filed them. No cut-off for these calls is given here. Where a SMILES comes first, the peptide text is derived from it. The star is where a group is joined. ACC = NC(=O)Cc1cc(=O)oc2cc(N*)ccc12

Columns and labels:
Papain (Carica papaya) = target: T1, Papain (Carica papaya) (UniProt P00784); assay: Activity at Carica papaya papain expressed in human A375 cells assessed as 7-amino-4-carbamoylmethylcoumarin release; format: cell-based; settings: A-375
T1 sequence (whole entry): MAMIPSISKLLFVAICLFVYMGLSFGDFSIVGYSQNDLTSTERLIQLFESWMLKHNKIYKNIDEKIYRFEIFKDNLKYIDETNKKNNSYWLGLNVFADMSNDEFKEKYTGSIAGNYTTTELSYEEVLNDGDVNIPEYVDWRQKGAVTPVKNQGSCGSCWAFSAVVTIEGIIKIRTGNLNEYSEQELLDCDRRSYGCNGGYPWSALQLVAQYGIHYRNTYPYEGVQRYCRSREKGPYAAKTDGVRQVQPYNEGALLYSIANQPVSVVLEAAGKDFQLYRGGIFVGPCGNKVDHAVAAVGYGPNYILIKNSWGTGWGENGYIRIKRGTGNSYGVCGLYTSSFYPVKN

[1] = target: Integrin alpha-4/beta-1 (Homo sapiens) (UniProt P05556+P13612); assay: Binding affinity to human integrin alpha4beta1 expressed in human A375 cells by flow cytometry; format: cell-based; settings: A-375

With `CC(C)C[C@H](N)C(=O)N[C@@H](CC(=O)O)C(=O)N[C@H](C(=O)N[C@@H](CCCNC(=N)N)C(=O)N[C@@H](Cc1c[nH]c2ccccc12)C(=O)N[C@@H](CCC(N)=O)C(=O)N[C@@H](Cc1ccc(O)cc1)C(=O)N[C@H](C(=O)N1CCC[C@H]1C(=O)NCC(=O)N[C@@H](CCCCN)C(=O)N[C@@H](Cc1ccccc1)C(=O)N[C@H](C(=O)N[C@H](C(=O)N[C@@H](CCC(N)=O)C(=O)Nc1ccc2c(CC(N)=O)cc(=O)oc2c1)C(C)C)[C@H](C)O)C(C)C)C(C)C` the Activity (Papain (Carica papaya)) was 15.6 ng/min.
For `CC(C)[C@H](NC(=O)[C@@H](NC(=O)[C@H](Cc1ccccc1)NC(=O)[C@H](CCCCN)NC(=O)CNC(=O)[C@@H]1CCCN1C(=O)[C@@H](NC(=O)[C@H](Cc1ccc(O)cc1)NC(=O)[C@H](CCC(N)=O)NC(=O)[C@H](Cc1c[nH]c2ccccc12)NC(=O)[C@@H](N)CCCNC(=N)N)C(C)C)[C@@H](C)O)C(=O)N[C@@H](CCC(N)=O)C(=O)Nc1ccc2c(CC(N)=O)cc(=O)oc2c1` (H-RWQYVPGKFTVQ-{ACC}), the Activity [1] was “inactive”.
